Laboratory results taken from patent US20250195629A1, “SITE-SPECIFIC BRAIN THERAPEUTICS” (William Marsh Rice University, priority 2023, published 2025).

B1: AADC-IKVAV: aromatic-L-amino-acid decarboxylase (AADC) protein fused with short peptide IKVAV (SEQ ID NO: 23); CDS SEQ ID NO: 21 (protein)
chain: MRGSHHHHHHGMASMTGGQQMGRDLYDDDDKDPMNASEFRRRGKEMVDYMANYMEGIEGRQVYPDVEPGYLRPLIPAAAPQEPDTFEDIINDVEKIIMPGVTHWHSPYFFAYFPTASSYPAMLADMLCGAIGCIGFSWAASPACTELETVMMDWLGKMLELPKAFLNEKAGEGGGVIQGSASEATLVALLAARTKVIHRLQAASPELTQAAIMEKLVAYSSDQAHSSVERAGLIGGVKLKAIPSDGNFAMRASALQEALERDKAAGLIPFFMVATLGTTTCCSFDNLLEVGPICNKEDIWLHVDAAYAGSAFICPEFRHLLNGVEFADSFNFNPHKWLLVNFDCSAMWVKKRTDLTGAFRLDPTYLKHSHQDSGLITDYRHWQIPLGRRFRSLKMWFVFRMYGVKGLQAYIRKHVQLSHEFESLVRQDPRFEICVEVILGLVCFRLKGSNKVNEALLQRINSAKKIHLVPCHLRDKFVLRFAICSRTVESAHVQRAWEHIKELAADVLRAEREGGSGSSGGSGGSGGSGIKVAV
modifications: misc_feature 1..1602 Synthetic: AADC-IKVAV

Assays:
[1] = system: wild-type C57BL/6J mice; test: Locomotor behavior test (open field) before and after L-DOPA; format: in vivo, mouse
Source text: RAID neuromodulation provides an approach for precise modulation of brain activity through regionally activated interstitial drug delivery. It should be noted, site-specific, noninvasive methods hold promise for controlled behavioral modulation. As such, to evaluate long-term efficacy of RAID neuromodulation, RAID's ability to sustain behavioral control over time is described herein. In some embodiments, to measure effects of RAID neuromodulation on behavior, targeting dorsal striatum with two FUS sites are be analyzed. In some instances, effects of RAID neuromodulation by targeting dorsal striatum with two FUS sites can be used to increase an amount of on-target delivery of AADC in the CPu region that contains dopamine-responsive cells. […] With this in mind, in certain embodiments, a pair of AADC-IKVAV (SEQ ID NO: 23) and L-DOPA may be used to evaluate whether RAID can induce similar behavioral changes after the prodrug administration. In some embodiments, AADC-IKVAV (SEQ ID NO: 23) is delivered via FUS-BBBO to two sites in the left striatum region of wild type mice. FIG. 11a illustrates embodiments of RAID control of behavior through targeted neuromodulation including an experimental scheme for RAID-induced control of motor behavior by targeted activation of dopamine neurons, in accordance with embodiments described herein. As illustrated, FUS in two sites of the left striatum are used to deliver AADC-IKVAV (SEQ ID NO: 23) (250 mg/kg, i.v. injection) or PBS buffer control. After 2 days, open field test (OFT) was performed twice before and after a single injection of the prodrug L-DOPA (2 mg/kg, i.p.), allowing 200 minutes between each test. The locomotor activity was recorded for 15 min after a habituation period of 5 min in each test. After the testing, mice were perfused 2 h after L-DOPA administration for histologic examination of AADC-IKVAV (SEQ ID NO: 23) retention and neuron activation (c-Fos+) to confirm localize neuromodulation. As schematically depicted in FIG. 11a, the AADC protein fused with a short peptide IKVAV (SEQ ID NO: 23) (e.g., AADC-IKVAV (SEQ ID NO: 23)) to two sites in the left striatum of wild-type mice using FUS-BBBO. After 46 hours, the mice underwent an open field (OF) test to assess baseline locomotor activity over a 20-minute period. The mice were then returned to their home cages and, 100 minutes later, received an intraperitoneal injection of L-DOPA (2 mg/kg) before undergoing another OF test.
(§1) Locomotor behavior test—Two groups of mice underwent FUS-BBBO targeting two sites at left striatum immediately after intravenous injection of recombinant protein AADC-IKVAV (SEQ ID NO: 23) (n=14 mice for FUS+AADC-IKVAV group, 20 mg/mL, 250 mg/kg) or equivalent volume of PBS buffer (n=11 mice for FUS alone group). Another group without FUS-BBBO procedure served as wild type control (n=12 mice for WT group). After 46 h, the first session of behavioral test was performed in a custom-made non-transparent open field box (30.5 cm×30.5 cm) as a baseline. Each mouse was individually placed into the apparatus center with a light intensity and background noise at ˜320 lux and 46 dB (400 Hz peak), respectively. After a habituation period of 5 min, the locomotor activity of a freely-moving mouse was recorded for 15 min by a video tracking system (Stoelting Co.) consisting of an overhead camera connected to a computer with Any-Maze software. Behavioral measures include total distance traveled, average and maximum speed, freezing time and episodes, mobile/immobile time and episodes, clockwise and counterclockwise rotations and head turn angles. The mouse was returned to the home cage immediately after testing. After 90 min, the mice were intraperitoneally injected with carbidopa (25 mg/kg) and 10 min later L-DOPA (2 mg/kg) as described above. A second session of open field test 100 min after L-DOPA injection.

[2] = system: mice; test: Weekly repeated RAID open field test over three weeks; format: in vivo, mouse
Source text: FIG. 15 includes data related to protein delivery and behavioral testing protocol repeated weekly over a course of three weeks. FIG. 15a illustrates weekly RAID-induced behavioral modulation including a first counterclockwise rotations graph measured in the open field test before and after administration of L-DOPA. FIG. 15b illustrates weekly RAID-induced behavioral modulation including a second counterclockwise rotations graph measured in the open field test before and after administration of L-DOPA. FIG. 15c illustrates weekly RAID-induced behavioral modulation including a first clockwise rotations graph measured in the open field test before and after administration of L-DOPA. FIG. 15d illustrates weekly RAID-induced behavioral modulation including a second clockwise rotations graph measured in the open field test before and after administration of L-DOPA. Data is presented as mean±s.e.m. n=7 mice for FUS alone group and n=14, 13, and 11 mice for the FUS+mAADC-IKVAV (SEQ ID NO: 23) group in weeks 1, 2, and 3, respectively; *P<0.05, **P<0.01, ns (not significant), using Two-way ANOVA with Sidak's multiple comparison test.
as §1, with “Behavioral measures include total distance traveled, average and maximum speed, freezing time and episodes, mobile/immobile time and episodes, clockwise and counterclockwise rotations and head turn angles. The mouse was returned to the home cage immediately after testing. After 90 min, the mice were intraperitoneally injected with carbidopa (25 mg/kg) and 10 min later L-DOPA (2 mg/kg) as described above. A second session of open field test 100 min after L-DOPA injection.” left out

[3] = Mouse body weight analysis; format: in vivo; settings: day 0 vs 2 days after injection, RLuc8.6 100 mg/kg, AADC-IKVAV 250 mg/kg
Procedure: To assess the potential impact of the RAID approach on the body weight of the mice involved in behavior analysis (n=11 mice for the FUS alone+L-DOPA group and n=14 mice for the FUS+AADC-IKVAV (SEQ ID NO: 23)+L-DOPA group), their body weight was recorded on a daily basis before and after FUS-BBBO administration. […] The body weight of the additional group of mice was also recorded in a similar manner; however, unintentionally four mice were omitted from weighing on the day following the AADC-IKVAV (SEQ ID NO: 23) injection. Similarly, the mouse body weight was recorded before and after the intravenous injection of unmodified or engineered RLuc8.6, which is related to the study presented in FIG. 5.

[4] = FUS+AADC-IKVAV alone, 46 h, vs WT and FUS alone

Molecule	decrease of clockwise (contralateral) rotation after L-DOPA ([1]; FUS alone group, L-DOPA 2 mg/kg i.p.)	change in episodes of mobility after L-DOPA ([1]; control groups, FUS alone or wild type, L-DOPA 2 mg/kg i.p.)	reduction of counter-clockwise (ipsilateral) rotations after L-DOPA ([1]; control mice with FUS alone or no treatment, L-DOPA 2 mg/kg i.p.)	decrease of clockwise (contralateral) rotation after L-DOPA ([1]; untreated wild-type group, L-DOPA 2 mg/kg i.p.)	reduction in clockwise rotations after L-DOPA ([2]; week 1, FUS-alone group)	reduction in counter-clockwise (ipsilateral) rotations after L-DOPA ([2]; week 1, control mice receiving FUS alone)	clockwise rotations after L-DOPA ([2]; week two, FUS-alone control group)	counter-clockwise rotations before L-DOPA administration [1, 4]	number of mobile episodes before L-DOPA administration [1, 4]	clockwise (contralateral) rotation after L-DOPA ([1]; RAID treatment: FUS + AADC-IKVAV, L-DOPA 2 mg/kg i.p.)	decrease in mobile episodes after L-DOPA ([1]; RAID: FUS two sites left striatum + AADC-IKVAV 250 mg/kg i.v., 2 days, L-DOPA 2 mg/kg i.p.)	reduction of counter-clockwise (ipsilateral) rotations after L-DOPA ([1]; full RAID treatment: FUS + AADC-IKVAV 250 mg/kg i.v., L-DOPA 2 mg/kg i.p.)	Weight loss ([3]; FUS-BBBO + protein i.v., RLuc8.6-IKVAV 104 mg/kg)	Weight loss ([3]; protein i.v. alone without FUS)
N[C@@H](Cc1ccc(O)c(O)c1)C(=O)O [L-DOPA, reference compound]	44±13%	no significant change	not in the control mice	52±8%	53±18%	not observed	no significant effects	–	–	–	–	–	–	–
B1	–	–	–	–	–	–	–	no effect	no effect	prevented that decrease	38±8%	63±10%	10.3±0.5%	13.8±0.8%
